Data reported in patent US9328122B2, “7-substituted Hanfangichin B derivative, and preparation method and use thereof” (HANGZHOU BENSHENG PHARMACEUTICAL CO., LTD., priority 2012, dated 2016).
≈ marks a conversion by molar mass, not a printed value.

Columns and labels:
[1] = tested on: RKO (human colon adenocarcinoma) cells; assay: MTT cell growth inhibition, solid tumor cells; type: cell-based; details: Homo sapiens, RKO, 72 h, MTT; for IC50: read-out: IC50; for IC90: read-out: IC90
Text: (§1) Hep-2 (laryngeal carcinoma), A549 (human lung cancer), CaES-17 (esophageal cancer cell), PC-3 (prostate cancer), CNE (nasopharyngeal carcinoma cell) and SK-OV-3 (ovarian cancer cell), all of which were purchased from China Center For Type Culture Collection; RKO (human colon adenocarcinoma cell), MGC-803 (human gastric cancer cell), MG-63 (osteosarcoma), and U87-MG (malignant glioma cell), all of which were purchased from Fuxiang Bio-tech Co. Ltd., Shanghai, China; PANC-1 (pancreatic cancer), Becap37 (human breast cancer cell), Hela (human cervical cancer cell) and Hep G2 (human liver cancer cell), all of which were donated by Cancer Research Institute of Zhejiang University, China.
(§2) 6000 well-growing human solid tumor cells were obtained and inoculated into wells of a 96-well cell culture plate. The culture medium was DMEM High Glucose cell culture medium containing 10% fetal bovine serum. The plate was placed in a carbon dioxide cell incubator (5% CO2) at 37° C. and incubated for 24 hours. After added with 7-substituted fangchinoline derivatives of different concentration and mixing uniformly, the plate was placed in a carbon dioxide cell incubator (5% CO2) at 37° C. and incubated for 72 hours. Then the viable cell concentration was determined by the MTT method.

[2] = tested on: Hela (human cervical cancer) cells; assay: MTT cell growth inhibition, solid tumor cells; type: cell-based; details: Homo sapiens, Hela, 72 h, MTT; for IC50: read-out: IC50; for IC90: read-out: IC90
Text: as §1, §2

[3] = tested on: MG-63 (osteosarcoma) cells; assay: MTT cell growth inhibition, solid tumor cells; type: cell-based; details: Homo sapiens, MG-63, 72 h, MTT; for IC50: read-out: IC50; for IC90: read-out: IC90
Text: as §1, §2

[4] = tested on: Becap-37 (human breast cancer) cells; assay: MTT cell growth inhibition, solid tumor cells; type: cell-based; details: Homo sapiens, Becap-37, 72 h, MTT; for IC50: read-out: IC50; for IC90: read-out: IC90
Text: as §1, §2

[5] = tested on: U87-MG (malignant glioma) cells; assay: MTT cell growth inhibition, solid tumor cells; type: cell-based; details: Homo sapiens, U-87 MG, U87-MG, 72 h, MTT; for IC50: read-out: IC50; for IC90: read-out: IC90
Text: as §1, §2

[6] = tested on: MGC-803 (human gastric cancer) cells; assay: MTT cell growth inhibition, solid tumor cells; type: cell-based; details: MGC-803, 72 h, MTT; for IC50: read-out: IC50; for IC90: read-out: IC90
Text: as §1, §2

[7] = tested on: Hep-2 (laryngeal carcinoma) cells; assay: MTT cell growth inhibition, solid tumor cells; type: cell-based; details: Homo sapiens, Hep-2, 72 h, MTT; for IC50: read-out: IC50; for IC90: read-out: IC90
Text: as §1, §2

[8] = tested on: Hep G2 (human liver cancer) cells; assay: MTT cell growth inhibition, solid tumor cells; type: cell-based; details: Homo sapiens, HepG2, Hep G2, 72 h, MTT; for IC50: read-out: IC50; for IC90: read-out: IC90
Text: as §1, §2

[9] = tested on: A549 (human lung cancer) cells; assay: MTT cell growth inhibition, solid tumor cells; type: cell-based; details: Homo sapiens, A549, 72 h, MTT; for IC50: read-out: IC50; for IC90: read-out: IC90
Text: as §1, §2

[10] = tested on: SK-OV-3 (ovarian cancer) cells; assay: MTT cell growth inhibition, solid tumor cells; type: cell-based, human; details: Homo sapiens, SK-OV-3, 72 h, MTT; for IC50: read-out: IC50; for IC90: read-out: IC90
Text: as §1, §2

[11] = tested on: PC-3 (prostate cancer) cells; assay: MTT cell growth inhibition, solid tumor cells; type: cell-based, human; details: Homo sapiens, PC-3, 72 h, MTT; for IC50: read-out: IC50; for IC90: read-out: IC90
Text: as §1, §2

[12] = tested on: CaEs-17 (esophageal cancer) cells; assay: MTT cell growth inhibition, solid tumor cells; type: cell-based, human; details: Homo sapiens, CaEs17, CaEs-17, 72 h, MTT; for IC50: read-out: IC50; for IC90: read-out: IC90
Text: as §1, §2

[13] = tested on: PANC-1 (pancreatic cancer) cells; assay: MTT cell growth inhibition, solid tumor cells; type: cell-based, human; details: Homo sapiens, PANC-1, 72 h, MTT; for IC50: read-out: IC50; for IC90: read-out: IC90
Text: as §1, §2

[14] = tested on: CNE (nasopharyngeal carcinoma) cells; assay: MTT cell growth inhibition, solid tumor cells; type: cell-based, human; details: for IC50 / IC90: Homo sapiens, CNE, 72 h, MTT; for IC50: read-out: IC50; for IC90: read-out: IC90
Text: as §1, §2

[15] = tested on: tumor; assay: Antitumor activity compared with fangchinoline, overall statement; type: cell-based; details: tumor type not specified
[16] = tested on: NB4 (acute promyelocytic leukemia) cells; assay: MTT cell growth inhibition, leukemia cells; type: cell-based; details: Homo sapiens, NB4, 72 h, MTT; for IC50: read-out: IC50; for IC90: read-out: IC90
Text: (§3) Leukemia cell lines: leukemia cell lines: K562adr (drug-resistant, chronic myeloid leukemia, CML), NB4 (acute promyelocytic leukemia, AML), Kasumi-1 (acute myeloid leukemia M2 type, AML-M2), Jurkat (acute lymphoblastic leukemia, ALL), all of which were donated by Cancer Research Institute of Zhejiang University, China; and H9 (acute lymphoblastic leukemia, ALL), which was purchased from China Center for Type Culture Collection.
(§4) Reagents: The standard sample of fangchinoline (FAN) was purchased from Ci Yuan Biotechnology Co., Ltd., Shaanxi, China; and the 7-substituted fangchinoline derivatives according to the present invention.
(§5) 6000 well-growing leukemia cells were obtained and inoculated into wells of a 96-well cell culture plate. The culture medium was a RPMI-1640 cell culture medium containing 10% fetal bovine serum. After adding the 7-substituted fangchinoline derivatives of different concentrations the next day and mixing uniformly, the plate was placed in a carbon dioxide cell incubator (5% CO2) at 37° C. and incubating for 72 hours. Then the viable cell concentration was determined by the MTT method.

[17] = tested on: K562/ADR (K562adr, drug-resistant chronic myeloid leukemia) cells; assay: MTT cell growth inhibition, leukemia cells; type: cell-based; details: Homo sapiens, K562/ADR, 72 h, MTT; for IC50: read-out: IC50; for IC90: read-out: IC90
Text: as §3, §4, §5

[18] = tested on: RPMI 8226 (multiple myeloma) cells; assay: MTT cell growth inhibition, multiple myeloma cells; type: cell-based, human; details: Homo sapiens, RPMI 8226, 72 h, MTT; for IC50: read-out: IC50; for IC90: read-out: IC90
Method: Myeloma cell lines: RPMI8226 (multiple myeloma), purchased from Fuxiang Bio-tech Co. Ltd., Shanghai, China.
as §5, with “well-growing” for “well-growing leukemia”, “incubated” for “incubating”

| SMILES | IC50 [1] [µg/mL] | IC90 [1] [µg/mL] | IC50 [2] [µg/mL] | IC90 [2] [µg/mL] | IC50 [3] [µg/mL] | IC90 [3] [µg/mL] | IC50 [4] [µg/mL] | IC90 [4] [µg/mL] | IC50 [5] [µg/mL] | IC90 [5] [µg/mL] | IC50 [6] [µg/mL] | IC90 [6] [µg/mL] | IC50 [7] [µg/mL] | IC90 [7] [µg/mL] | IC50 [8] [µg/mL] | IC90 [8] [µg/mL] | IC50 [9] [µg/mL] | IC90 [9] [µg/mL] | IC50 [10] [µg/mL] | IC90 [10] [µg/mL] | further results |
| --- | --- | --- | --- | --- | --- | --- | --- | --- | --- | --- | --- | --- | --- | --- | --- | --- | --- | --- | --- | --- | --- |
| COc1ccc2cc1Oc1ccc(cc1)C[C@H]1c3cc(c(OC)cc3CCN1C)Oc1c(OCc3cccc(F)c3F)c(OC)cc3c1[C@H](C2)N(C)CC3 [BS-FC-204] | 1.66 (≈ 2.26 µM) | 2.95 (≈ 4.01 µM) | 0.5 (≈ 0.68 µM) | 1 (≈ 1.36 µM) | 2.6 (≈ 3.54 µM) | 3.5 (≈ 4.76 µM) | 4.87 (≈ 6.63 µM) | 7.89 (≈ 10.7 µM) | 2.38 (≈ 3.24 µM) | 9.1 (≈ 12.4 µM) | 2.94 (≈ 4 µM) | 8.5 (≈ 11.6 µM) | 3.18 (≈ 4.33 µM) | 8.31 (≈ 11.3 µM) | 3.73 (≈ 5.08 µM) | 7.96 (≈ 10.8 µM) | 2.16 (≈ 2.94 µM) | 3.94 (≈ 5.36 µM) | 12.2 (≈ 16.6 µM) | 16 (≈ 21.8 µM) | IC50 [11]: 3.8 µg/mL (≈ 5.17 µM); IC90 [11]: 6.39 µg/mL (≈ 8.7 µM); IC50 [12]: 4.6 µg/mL (≈ 6.26 µM); IC90 [12]: 14.5 µg/mL (≈ 19.8 µM); IC50 [13]: 2.23 µg/mL (≈ 3.03 µM); IC90 [13]: 6.85 µg/mL (≈ 9.32 µM); IC50 [14]: 2.7 µg/mL (≈ 3.67 µM); IC90 [14]: 5.2 µg/mL (≈ 7.08 µM); antitumor activity compared with that of fangchinoline [15]: significantly superior; IC50 [16]: 0.39 µg/mL (≈ 0.531 µM); IC90 [16]: 2.57 µg/mL (≈ 3.5 µM); IC50 [17]: 0.38 µg/mL (≈ 0.517 µM); IC90 [17]: 1.92 µg/mL (≈ 2.61 µM); IC50 [18]: 0.42 µg/mL (≈ 0.572 µM); IC90 [18]: 1.58 µg/mL (≈ 2.15 µM) |
| COc1ccc2cc1Oc1ccc(cc1)C[C@H]1c3cc(c(OC)cc3CCN1C)Oc1c(OCC(O)CN3CCN(C#N)CC3)c(OC)cc3c1[C@H](C2)N(C)CC3 (some centres unmarked) [BS-FC-421] | 0.61 (≈ 0.786 µM) | 2.33 (≈ 3 µM) | 0.88 (≈ 1.13 µM) | 2.78 (≈ 3.58 µM) | 1.6 (≈ 2.06 µM) | 2.4 (≈ 3.09 µM) | 1.15 (≈ 1.48 µM) | 3.96 (≈ 5.1 µM) | 1.05 (≈ 1.35 µM) | 2.75 (≈ 3.54 µM) | 0.84 (≈ 1.08 µM) | 4.44 (≈ 5.72 µM) | 1.92 (≈ 2.47 µM) | 8.95 (≈ 11.5 µM) | 1.16 (≈ 1.49 µM) | 3.25 (≈ 4.19 µM) | 3.78 (≈ 4.87 µM) | 10.2 (≈ 13.1 µM) | 2.36 (≈ 3.04 µM) | 11 (≈ 14.2 µM) | IC50 [11]: 2.72 µg/mL (≈ 3.51 µM); IC90 [11]: 6.07 µg/mL (≈ 7.82 µM); IC50 [12]: 0.88 µg/mL (≈ 1.13 µM); IC90 [12]: 9.43 µg/mL (≈ 12.2 µM); IC50 [13]: 2.96 µg/mL (≈ 3.81 µM); IC90 [13]: 7.01 µg/mL (≈ 9.03 µM); IC50 [14]: 0.87 µg/mL (≈ 1.12 µM); IC90 [14]: 3.87 µg/mL (≈ 4.99 µM); anti-CNE activity increase over fangchinoline ([14]; relative to fangchinoline, Table 2): ~3 fold; antitumor activity compared with that of fangchinoline [15]: significantly superior; IC50 [16]: 0.61 µg/mL (≈ 0.786 µM); IC90 [16]: 1.61 µg/mL (≈ 2.07 µM); IC50 [17]: 0.21 µg/mL (≈ 0.271 µM); IC90 [17]: 1.43 µg/mL (≈ 1.84 µM); IC50 [18]: < 0.125 µg/mL; IC90 [18]: 0.25 µg/mL (≈ 0.322 µM) |
